These results are taken from patent US20250283885A1, “MODULAR BIOSENSOR FOR RECEPTOR TYROSINE KINASE ACTIVITY” (The Trustees of Princeton University, priority 2024, published 2025).

Experiment [1] concerns ErbB2. The experiment is described as follows: Multiplexed pYtags in NIH 3T3 cells: ErbB2 reporter (iRFP-ZtSH2; ErbB2-CD3ε-FusionRed). Type of experiment: cell-based. The settings on record: 100 ng/mL. The source says:
Having characterized an orthogonal pair of pYtags, it was recognized that these biosensors could be used to simultaneously monitor the activation of both EGFR and ErbB2. NIH 3T3 cells that co-expressed pYtags for EGFR (Clover-VISH2; EGFR-SLP76-BFP) and ErbB2 (iRFP-ZtSH2; ErbB2-CD3ε-FusionRed) were generated. […] VISH2 cleared from the cytosol almost immediately (<30 sec), indicating rapid phosphorylation of the EGFR C-terminal tail. […] Although the absolute magnitude of tSH2 biosensor clearance varied between cell lines (likely due to differences in affinity and expression level), the dynamics of EGFR and ErbB2 activation were highly reproducible in all cases, irrespective of the cell line or pYtag.

The test system of experiment [2] is ErbB2. As to the kind of experiment: ErbB2 pYtag (with EGFR-Citrine) in NIH 3T3 cells: clearance of cytosolic ZtSH2. Type of experiment: cell-based. Conditions: NIH 3T3, required ITAMs on ErbB2 and co-expression of EGFR. As to the method: One advantage of the pYtag approach is its modularity: ITAMs can in principle be fused to the C-termini of many different RTKs and recruit ZtSH2 upon stimulation. Therefore, it was tested whether pYtags could be adapted to monitor the activity of receptors other than EGFR. pYtag biosensors were designed for two additional RTKs: 1) ErbB2, a ligandless member of the ErbB family that signals by heterodimerizing with ligand-bound EGFR; and 2) fibroblast growth factor receptor 1 (FGFR1), a non-ErbB family RTK. ErbB2 is a particularly challenging RTK to study because it can only be activated in conjunction with an additional RTK (e.g., EGFR), so Grb2-based biosensors would be unable to distinguish between the activity of EGFR and ErbB2.
Starting from NIH 3T3 cells expressing iRFP-ZtSH2, cell lines expressing either an ErbB2 pYtag (ErbB2-CD3ε-FusionRed), an FGFR1 pYtag (FGFR1-CD3ε-FusionRed), or ITAM-less variants of each were generated. For the ErbB2 case, cells with EGFR-Citrine were further transduced to express both required components of a functional receptor heterodimer (see FIG. 3, and FIGS. 4A-4B).
The pYtag approach is indeed modular, and this strategy can be readily adapted for monitoring the activation of distinct RTKs in individual cells.

In a further experiment the test system is EGFR and Erk signaling. As to the kind of experiment: EGFR pYtag and ErkKTR in MCF10A clusters on soft substrata. Type of experiment: cell-based, human. The protocol: At the tissue scale, the spatiotemporal distribution of RTK signaling can also be regulated by several processes including paracrine signaling, morphogen gradients, and the mechanical properties of the local microenvironment. It was therefore asked whether pYtags could be used to monitor RTK signaling in multicellular contexts.
To prepare polyacrylamide substrata, 1.5-mm-thick glass coverslips were pre-treated with glutaraldehyde. First, coverslips were treated with 0.1 N NaOH for 30 min, followed by rinsing with deionized water and air drying. Coverslips were then treated with 2% aminopropyltrimethoxysilane (Sigma Aldrich) in acetone for 30 min, washed three times with acetone, and left to air dry. Coverslips were treated with 0.5% glutaraldehyde (Sigma Aldrich) in PBS for 30 min, washed with deionized water, and left to air dry. Custom glass-bottom dishes were prepared by replacing the bottoms of 35 mm TCPS dishes with glutaraldehyde-treated coverslips, which were sealed using PDMS (Sigma Aldrich).
To investigate the dynamics of this spatial pattern, EGFR signaling was monitored using two live-cell biosensors: EGFR pYtag and a kinase translocation reporter for downstream signaling through Erk (ErkKTR).

Another experiment addresses EGFR (Homo sapiens, UniProt P00533). The experiment is described as follows: EGFR pYtag live-cell imaging: clearance of cytosolic ZtSH2 in NIH 3T3 cells.
A further experiment deals with EGFR R84K or A265V. As to the kind of experiment: pYtag response of GBM-associated mutant EGFRs in NIH 3T3 cells. Conditions: 20 ng/ml, NIH 3T3 cells expressing R84K or A265V EGFR. Format: cell-based, mouse. The source says:
To validate the prediction of our model, the dimerization affinity of EGFR was experimentally altered and signaling responses were monitored using pYtags. One can turn to glioblastoma multiform (GBM)-associated mutations in the extracellular domain of EGFR (R84K and A265V point mutations), which were previously shown to increase the dimerization affinity of EREG- and EPGN-bound receptors. These GBM-associated mutations were first modeled in EGFR by decreasing β and γ by 6-fold and 650-fold, respectively. […] NIH 3T3 cell lines expressing pYtag biosensors of EGFR variants harboring either the R84K or A265V mutation were then generated.
The data reveal ligand-dependent EGFR signaling dynamics at unprecedented temporal resolution and point to the dimerization affinity of ligand-bound receptors as a key parameter that governs these responses. More broadly, combining pYtags with mathematical modeling can shed mechanistic insight into the signaling dynamics of RTKs.

For “EGF: epidermal growth factor, high-affinity EGFR ligand (NSDSECPLSHDGYCLHDGVCMYIEALDKYACNCVVGYIGERCQYRDLKWWELR; Epidermal growth factor; UniProt P01133 971-1023, looked up)”, the “Time of ZtSH2 clearance from the cytosol (ErbB2 phosphorylation)” value with ErbB2 [1] is approximately 3 min. Moreover, the “ZtSH2 response of ErbB2 pYtag-expressing cells” value with ErbB2 [2] was “clearance of ZtSH2 from the cytosol”. Further, in the experiment with EGFR and Erk signaling, the “Delay in EGFR and Erk signaling between periphery and interior of clusters” value was 2 to 4 min; the “Delay of Erk responses behind EGFR responses” value is given as approximately 4 min.

On to “EREG: epiregulin, low-affinity EGFR ligand”, for which, in the experiment with EGFR (20 ng/ml, NIH 3T3 cells expressing WT EGFR), the “pYtag signaling response of WT EGFR” value is “transient peak of activation and rapid plateau”. Also, the “EGFR activity dynamics after low-affinity ligand” value with EGFR (varying doses, NIH 3T3 EGFR pYtag) is reported as “rapid rise in EGFR activity followed by a plateau within minutes”. Also, the “pYtag signaling response of GBM-associated mutant EGFR” value in the experiment with EGFR R84K or A265V is reported as “stronger response that gradually increased over time”.
